Test results reported in publication PMC5712521, “Dendrogenin A drives LXR to trigger lethal autophagy in cancers” (Nature Communications, 2017).

Tests used:
[1] = test system: SKMEL-28 cells; assay: RT-qPCR of LXR-responsive genes; format: cell-based, human; settings: 8 h, 2.5 µM DDA, 10 µM 22(R)HC, 1 µM GW, 100 nM TO, vs vehicle
Method: Total RNA was extracted from tumor cells or MEFs using an RNA Extraction kit (Qiagen) or Trizol (Invitrogen), respectively, and was quantified with NanoDrop. Complementary DNA (cDNA) synthesis was performed with 1 μg RNA iScript Reverse Transcriptase (Bio-Rad). 25 ng cDNA was amplified using SyBR Supermix (Bio-Rad). RNA expression of the different genes of interest (Supplementary Tables 1, 2) were determined using the ΔΔCT method, where the difference in the threshold cycle (ΔCT) values of the target gene and the housekeeping gene for each sample was normalized to the ΔCT value of the untreated sample.
Supplementary Fig. 4. a R egulat ion of LXR-responsive genes b y D DA and other k nown LXR
ligands in B16F10 and SKMEL- 28 cells transfected with s iRN A targeting LXRβ ( siLXRβ) or
with contro l siRN A scram ble (siSC). Cells were treated for 8 h with either solvent vehicle, 2.5
µM DD A, 10 µM 22(R) hydrox ycholesterol (22(R)HC), 1 µM GW 3965 (GW ) or 100 nM
T O901317 (T O). […]

[2] = test system: SKMEL-28 cells; assay: Immunoblot densitometry (LC3-II); format: cell-based, human; settings: SKMEL-28, 24 h; 2.5 µM DDA, 10 µM 22(R)HC, 100 nM TO
Method: Immunoblotting was carried out as described previously. Proteins were separated on SDS-PAGE gels, electro-transferred onto polyvinylidene difluoride membranes and incubated overnight at 4 °C with the following antibodies: anti-Atg3, anti-Atg5 (D1G9), anti-Atg7 (D12B11), anti-Beclin (D40C5), anti-caspase-3 (Cell Signaling), anti-Bcl-2 (Millipore), anti-Bax (Millipore), anti-LC3 (Sigma-Aldrich), anti-LXRα (SantaCruz), anti-LXRβ (SantaCruz), anti-Nur77 (Active motif), anti-NOR1 (R&D systems), anti-PARP (Cell Signaling), anti-Vps34 (Cell Signaling), or anti-Actin (Millipore). For visualization, an ECL plus kit (Amersham Biosciences) was used, and chemiluminescence was measured by autoradiography (Supplementary Fig. 9). Specific bands were quantified with ImageQuant software.

[3] = test system: B16F10 cells; assay: Sterol analysis by GC/MS; format: cell-based, mouse; settings: B16F10, 24 h, 10 µM 22(R)HC, 1 µM GW, 100 nM TO
Method: (§1) Sterols in cell homogenates were extracted with a solvent mixture containing chloroform/methanol 2/1 (v/v) spiked with epicoprostanol as the internal standard. Lipids were partitioned in chloroform after the addition of saline and saponified by methanolic potassium hydroxide (0.5 N, 60 °C, 15 min). The fatty acids released were methylated with BF3-methanol (12%, 60 °C, 15 min) to not interfere with the chromatography of sterols. The sterols were re-extracted in hexane and silylated, as described previously. The trimethylsilylether derivatives of the sterols were separated by gas chromatography (GC) (Hewlett–Packard 6890 series) in a medium polarity capillary column RTX-65, (65% diphenyl 35% dimethyl polysiloxane, length 30 m, diameter 0.32 mm, film thickness 0.25 μm (Restesk, Evry, France)). The mass spectrometer (Agilent 5975 inert XL) in series with the GC was set up for the detection of positive ions. Ions were produced in the electron impact mode at 70 eV. Sterols were identified by the fragmentogram in the scanning mode and quantified by selective monitoring of the specific ions after normalization with the internal standard epicoprostanol and calibration with weighed standards. […]
Anal yses were perform ed by GC/MS. f Quantification of sterols accumulated in
m elanom a cells after 24 h treatm ent with 10 µM 22(R) HC, 1 µ M GW , 100 nM T O or solvent
(§2) vehicle. […]

[4] = test system: B16F10 cells; assay: DDA-induced cytotoxicity (cell death); format: cell-based; settings: B16F10; 5 µM 22(R)HC, 0.5 µM TO, 1 µM GW
Method: (§3) Melanoma cells were seeded into 6-well plates at 60,000 cells per well and AML cells at 250,000 cells/ml. The cells were then treated with control solvent vehicle (1/1000 ethanol in water) or DDA. Where indicated, treated cells were incubated in the presence or absence of each inhibitor for time shown. Cell death was determined by the trypan blue exclusion assay. Cells were scraped and resuspended in trypan blue solution (0.25% (w/v) in PBS) and counted in a Malassez cell under light microscopy. Cell viability was then quantified by counting viable (trypan blue-negative) and dead cells (trypan blue-positive).
(§4) Supplementary Fig. 1. a DDA inhibited m elanom a colony form ation. Melanom a cells were […]
(§5) a 0.5% solution of crystal violet in water and analyzed by microscopy. Images are representative of 5 independent experiments. b Evaluation of DDA-induced cytotoxicity (cytotox) and clonogenicity (clono) inhibition in a subset of human (H) and mouse (M) m elanom a cell lines. T he BRaf status in m elanom a cells lines is shown. […]

[5] = test system: SKMEL-28 cells; assay: DDA-induced cytotoxicity (cell death); format: cell-based; settings: SKMEL-28; 5 µM 22(R)HC, 0.5 µM TO, 1 µM GW
Method: as §3, §4, §5

[6] = test system: SKMEL-28 cells; assay: Sterol analysis by GC/MS; format: cell-based, human; settings: SKMEL-28, 24 h; 10 µM 22(R)HC, 1 µM GW, 100 nM TO; GC/MS
Method: as §1
Quantification of sterols ac cum ulation in SKMEL- 2 8 c ells either expressing LXRβ (shCT L) or with LXRβ (sh3 or sh4LXR β) k nock ed down after 24 h treatm ent with 2.5 µ M DD A or solvent vehicle. Anal yses were perform ed by GC/MS. f Quantification of sterols accumulated in m elanom a cells after 24 h treatm ent with 10 µM 22(R) HC, 1 µ M GW , 100 nM T O or solvent […]
as §2

## CC(C)CC[C@@H](O)[C@@H](C)[C@H]1CC[C@H]2[C@@H]3CC=C4C[C@@H](O)CC[C@]4(C)[C@H]3CC[C@]12C [22(R)HC, 22(R)-hydroxycholesterol]
[1]; SKMEL-28, siCT
  ABCA1 mRNA: 6.5±0.1 fold
  ABCG1 mRNA: 2.1±0.2 fold
  ABCG5 mRNA: 4.5±0.1 fold
  ABCG8 mRNA: 0.4±0.1 fold
  LC3A mRNA: 1.0±0.2 fold
  LC3B mRNA: 0.9±0.2 fold
  LDLR mRNA: 0.4±0.1 fold
  NOR1 mRNA: 1.8±0.1 fold
  Nur77 mRNA: 1.6±0.2 fold
  SCD1 mRNA: 1.0±0.2 fold
  SREBP1 mRNA: 2.3±0.2 fold
  SULT2B1b mRNA: 1.9±0.1 fold
[1]; SKMEL-28, siLXRβ
  ABCA1 mRNA: 1.5±0.1 fold
  ABCG1 mRNA: 0.2±0.1 fold
  ABCG5 mRNA: 1.7±0.3 fold
  ABCG8 mRNA: 0.7±0.2 fold
  LC3A mRNA: 1.0±0.2 fold
  LC3B mRNA: 1.0±0.1 fold
  LDLR mRNA: 1.1±0.1 fold
  NOR1 mRNA: 1.2±0.2 fold
  Nur77 mRNA: 0.8±0.2 fold
  SCD1 mRNA: 0.8±0.1 fold
  SREBP1 mRNA: 0.9±0.3 fold
  SULT2B1b mRNA: 1.0±0.2 fold
[2]
  LC3-II protein, densitometry relative to control: 1
[3]
  Sterol amount/total sterol: 8-DHC: 0.08± 0.006
  Sterol amount/total sterol: zymostenol: 0.24± 0.08
[4]
  cell death: no impact on cell death
[5]
  cell death: no impact on cell death
[6]
  Sterol amount/total sterol: 8-DHC: 0.05± 0.03
  Sterol amount/total sterol: zymostenol: 0.37± 0.07
